{
  "source": "paper PMC6321145",
  "about": "(Molecules, 2018)",
  "key": {"[1]": {"assay": "Oxygen radical absorbance capacity with fluorescein (ORAC-FL) assay", "conditions": "compound 1 μM", "experimental": "Oxidative stress is another crucial event in AD pathogenesis. In order to determine antioxidant activities of our synthetic compounds, the oxygen radical absorbance capacity method with fluorescein (ORAC-FL) assay was performed. with Trolox (6-hydroxy-2,5,7,8-tetramethylchroman-2-carboxylic acid) as the standard, and their antioxidant activity was expressed as Trolox equivalents.\nThe antioxidant activities of the compounds in vitro were determined by the oxygen radical absorbance capacity fluorescein (ORAC-FL) assay. The tested compounds and (±)-6-hydroxy-2,5,7,8-tetramethylchroman-2-carboxylic acid (Trolox) were dissolved in DMSO at a concentration of 10 mM, and then diluted with 75 mM potassium phosphate buffer (pH 7.4) to 50 μM and 10 μM for use. The fluorescein (FL) stock solution (3.4 mM) was diluted with the same buffer to 136 nM. All the assays were conducted with 75 mM potassium phosphate bufffer (pH 7.4), and the final reaction mixture was 200 μL.\nThe mixture of compounds (or buffer) (20 μL) and fluorescein (FL, 120 μL) were incubated for 15 min at 37 °C in a black 96-well plate. Then 2,2′-azobis-(amidino-propane)-dihydrochloride (AAPH) solution (60 μL, 40 mM) was rapidly added to the reaction mixture. The fluorescence was recorded every 5 min for 240 min at 485 nm (excitation wavelength) and 535 nm (emission wavelength) (Varioskan Flash Multimode Reader, Thermo Scientific, Waltham, MA, USA), and each sample was prepared and measured for three times independently. […] The net AUC for a sample was calculated using the expression net AUC = AUCsample − AUCblank, The ORAC-FL value of each sample was calculated using the equation of net AUCsample/(AUCTrolox – AUCblank), which was expressed as Trolox equivalents."}, "[2]": {"assay": "Metal chelation by UV-vis spectrometry", "type": "physicochemical", "experimental": "The chelation ability of compound 6b1 toward biometals such as Na^+, K^+, Cu^2+, Fe^2+, Mg^2+, Ca^2+, and Zn^2+ was studied by UV-vis spectrometry. […] Its ability to selectively chelate Cu^2+ versus other relevant metal ions was further investigated by UV-vis spectrometry. Solution of compound 6b1 was prepared and treated with the metal ion (Zn^2+, Fe^2+, Ca^2+, Mg^2+, Na^+ and K^+), after 10 min incubation, the optical response was observed, followed by addition of Cu^2+ and consequent analysis of further spectral changes.\nIn order to further determine the stoichiometry of compound 6b1 for Cu^2+ binding, the UV spectra was performed by titrations of compound 6b1 upon stepwise additions of a Cu^2+ solution.\nThe metal chelation of compound 6b1 was tested in ethanol using a UV-vis spectrophotometer (Shimadzu UV-2450PC) with wavelength ranging from 200 to 700 nm. The absorption spectra of compound 6b1 (10 μM, final concentration) alone or in the presence of metal ions (20 μM, final concentration) after incubation for 30 min at room temperature, was recorded at room temperature in a 1 cm quartz cell. Each sample was repeated for at least three times.\nExperiments for the determination of metal ion binding selectivity were carried as follows. 20.0 mM stock solutions of CuSO4, ZnSO4, FeSO4, CaCl2, MgCl2, NaCl and KCl in MQ water were prepared and then diluted to 1.0 mM using ethanol. […] 10 μL solutions of the compounds treated with 10 μL of ZnSO4, FeSO4, CaCl2, MgCl2, NaCl and KCl. Spectra were recorded after 10 min incubation at 25 °C. The metal binding selectivity was assessed by then adding 10 μL of CuSO4 solution and incubating for 10 additional min at 25 °C. Selectivity was quantified by comparing and normalizing the absorbance values of the maximum in each case with the absorbance of the solution at the same wavelength after addition of CuSO4.\nFor binding stoichiometry assay, A fixed amount of compound 6b1 (20 μM) was mixed with growing amounts of copper ion (0–20 μM) and tested the difference UV-vis spectra to investigate the ratio of ligand/metal in the complex."}, "Aβ1–42 fibrils [3]": {"target": "T1, Aβ1–42 fibrils (Homo sapiens, UniProt P05067)", "T1 construct": "Aβ1–42 (Sigma, St. Louis, MO, USA; counterion, NaOH) stock solution was prepared by dissolving Aβ1–42 peptide in ammonium hydroxide; purchased Sigma", "T1 sequence (P05067 672-713)": "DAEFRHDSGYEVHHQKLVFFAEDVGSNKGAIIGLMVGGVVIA", "assay": "TEM assay of Aβ1–42 fibrils", "type": "biochemical", "conditions": "compound 20 μM", "experimental": "To further complement the ThT binding assay, A transmission electron microscopy (TEM) assay was employed to monitor and clarify the effect of compound 6b1 on Aβ1−42 aggregation.\n(§1) The ability of compound 6b1 to disaggregate self-induced Aβ1–42 aggregation fibrils was also investigated. Aβ1–42 fibrils were prepared by incubating fresh Aβ1–42 for 24 h at 37 °C, and the test compound was added to the sample and incubated for another 24 h at 37 °C. Then the sample was analyzed by ThT binding assay and TEM assay.\nAβ1–42 peptide (Sigma) was dissolved in 20 mM phosphate buffer (pH 7.4) at 4 °C to 100 μM before use.\nAβ1–42 was incubated at 37 °C for 24 h. Then, 40 μM tested compound was added and incubated at 37 °C for another 24 h. The final concentrations of Aβ1–42 and the compounds were 50 μM and 20 μM, respectively. After incubation, aliquots (5 μL) of the samples were placed on a carbon-coated copper/rhodium grid for 2 min at room temperature. Each grid was stained with uranyl acetate (1%, 5 μL) for 2 min. Excess staining solution was removed and the specimen was transferred for imaging with transmission electron microscopy (JEOL JEM-1400, Tokyo, Japan)."}, "mice": {"test_system": "mice", "assay": "Step-down passive avoidance test, scopolamine-induced memory impairment", "type": "in vivo", "experimental": "A step-down passive avoidance test was used to assess learning and memory in mice. The apparatus (Shanghai XinRuan, Shanghai, China) consisted of two identically sized compartments, with a guillotine door to separate light and dark. Illumination was available in the light box through LED lights at 250 lux. The mice underwent two separate trials: a training trial and a test trial 24 h later. For training trial, mice were initially placed in the light compartment and were allowed to explore the environment freely for 5 min so that they can be familiar with the environment. Then the door was opened, the mice tried to enter the dark compartment since they preferred to stay in dark place. As soon as the mice came into the dark compartment, an electrical shock was delivered through the steel rods. The training lasted for 5 min. […] The test trial was preformed after 24 h. The mice were placed into the light compartment and the door was opened. The time that the mouse spent to enter the dark compartment was recorded as the latency. The numbers that the mouse entered the dark compartment during 5 min were measured as error numbers."}, "Aβ1–42 fibrils [4]": {"target": "T1, Aβ1–42 fibrils", "assay": "Disaggregation of self-induced Aβ1–42 aggregation fibrils (ThT binding assay)", "type": "biochemical", "conditions": "compound 20 μM, fibrils formed 24 h, then 24 h with compound, 37 °C", "experimental": "as §1"}, "[5]": {"conditions": "compound 10 μM, metal ions 20 μM, ethanol"}},
  "data": [
    {"smiles": "CCN(CC)c1ccc(/C=C/c2cc(NCCCN(C)C)c3ccccc3n2)cc1", "note": "[Compound 6b1, (E)-N^1-(2-(4-(Diethylamino)styryl)quinolin-4-yl)-N^3,N^3-dimethylpropane-1,3-diamine]", "values": [
      {"measurement": "ORAC", "setting": "[1]", "result": "6.23 ± 0.05 μmol of Trolox equivalents/μmol of tested compounds"},
      {"measurement": "Binding to Na^+, K^+, Mg^2+, Ca^2+ (UV-vis)", "setting": "[2]; [5]", "result": "may not bind to these metal ions"},
      {"measurement": "Interaction with Cu^2+, Fe^2+, Zn^2+ (UV-vis)", "setting": "[2]; [5]", "result": "form the complex"},
      {"measurement": "Selectivity of metal chelation for Cu^2+ versus other metal ions", "setting": "[2]; versus Zn^2+, Fe^2+, Ca^2+, Mg^2+, Na^+, K^+", "result": "good selectivity of metal chelation for Cu^2+"},
      {"measurement": "TEM: Aβ1–42 fibril formation in presence of compound", "setting": "Aβ1–42 fibrils [3]; 37 °C, 24 h", "result": "only fewer thin fibrils and small bulk aggregates"},
      {"measurement": "TEM: disaggregation of Aβ1–42 fibrils", "setting": "Aβ1–42 fibrils [3]; preformed fibrils, 24 h at 37 °C", "result": "could disaggregate more Aβ1–42 fibrils than resveratrol"},
      {"measurement": "Improvement of memory impairment compared with model group", "setting": "mice; 4.0 mg/kg (low dose)", "result": "didn’t exhibit significant improvement"},
      {"measurement": "Latency time", "setting": "mice; 16.0 mg/kg (high dose)", "result": 182, "unit": "s"},
      {"measurement": "Number of errors", "setting": "mice; 16.0 mg/kg (high dose)", "result": 2.72},
      {"measurement": "Disaggregation ratio of self-induced Aβ1–42 fibrils", "setting": "Aβ1–42 fibrils [4]", "result": 64.3, "unit": "%"}
    ]}
  ]
}
